ChEMBL document CHEMBL1143940, “Eupalinin A isolated from Eupatorium chinense L. induces autophagocytosis in human leukemia HL60 cells” (Bioorg Med Chem, 2008)
Active and inactive are the calls of the source.

Experiments:
HL-60 [1] = assay: Induction of apoptosis in human HL60 cells assessed as decrease in Bax levels at 4 uM after 12 hrs; format: functional, cell-based
HL-60 [2] = assay: Effect on caspase 9 activity in human HL60 cells at 4 uM; format: functional, cell-based
HL-60 [3] = assay: Effect on caspase 2 activity in human HL60 cells at 4 uM; format: functional, cell-based
HL-60 [4] = assay: Cytotoxicity against human HL60 cells; format: functional, cell-based
HL-60 [5] = assay: Induction of apoptosis in human HL60 cells assessed as increase in phospho-Bcl-xl levels at 4 uM after 12 hrs; format: functional, cell-based
HL-60 [6] = assay: Induction of autophagy in human HL60 cells at 4 uM in presence of PI3K inhibitor LY-294002; format: functional, cell-based
HL-60 [7] = assay: Induction of autophagy in human HL60 cells assessed as increase in lipidated microtubule-associated-protein light chain 3 subunit II levels at 4 uM after 3 to 6 hrs; format: functional, cell-based
HL-60 [8] = assay: Induction of apoptosis in human HL60 cells at 4 uM in presence of 100 uM caspase inhibitor ZVADFMK by Trypan blue exclusion test; format: functional, cell-based
HL-60 [9] = assay: Increase in JNK protein level in human HL60 cells at 4 uM by Western blot; format: functional, cell-based
HL-60 [10] = assay: Effect on caspase 3 activity in human HL60 cells at 4 uM; format: functional, cell-based
HL-60 [11] = assay: Induction of autophagy in human HL60 cells at 4 uM in presence of PI3K inhibitor 3-methyladenine; format: functional, cell-based
HL-60 [12] = assay: Induction of DNA fragmentation in human HL60 cells at 4 uM; format: functional, cell-based; conditions: TDE = time-dependent effect
HL-60 [13] = assay: Induction of autophagy in human HL60 cells at 4 uM after 12 hrs by MDC staining; format: functional, cell-based
HL-60 [14] = assay: Effect on caspase 8 activity in human HL60 cells at 4 uM; format: functional, cell-based
HL-60 [15] = assay: Induction of cell death in human HL60 cells assessed as formation of autophagosomes at 4 uM after 6 hrs; format: functional, cell-based
HL-60 [16] = assay: Induction of apoptosis in human HL60 cells assessed as increase in phospho-Bcl2 at 4 uM after 12 hrs; format: functional, cell-based
HL-60 [17] = assay: Increase in p38 MAPK protein level in human HL60 cells at 4 uM by Western blot; format: functional, cell-based
HL-60 [18] = assay: Induction of apoptosis in human HL60 cells assessed as increase in phospho-Bad levels at 4 uM after 12 hrs; format: functional, cell-based
HL-60 [19] = assay: Disruption of mitochondrial membrane potential in human HL60 cells at 4 uM after 12 hrs; format: functional, cell-based
HL-60 [20] = assay: Induction of nuclear condensation in human HL60 cells at 4 uM after 24 hrs by Hoechst33342 staining method; format: functional, cell-based
[21] = molecular target: RAC-alpha serine/threonine-protein kinase (Homo sapiens) (UniProt P31749); assay: Increase in Akt phosphorylation in human HL60 cells at 4 uM after 48 hrs; format: cell-based; conditions: HL-60
Sequence of RAC-alpha serine/threonine-protein kinase (Homo sapiens) (P31749 whole entry): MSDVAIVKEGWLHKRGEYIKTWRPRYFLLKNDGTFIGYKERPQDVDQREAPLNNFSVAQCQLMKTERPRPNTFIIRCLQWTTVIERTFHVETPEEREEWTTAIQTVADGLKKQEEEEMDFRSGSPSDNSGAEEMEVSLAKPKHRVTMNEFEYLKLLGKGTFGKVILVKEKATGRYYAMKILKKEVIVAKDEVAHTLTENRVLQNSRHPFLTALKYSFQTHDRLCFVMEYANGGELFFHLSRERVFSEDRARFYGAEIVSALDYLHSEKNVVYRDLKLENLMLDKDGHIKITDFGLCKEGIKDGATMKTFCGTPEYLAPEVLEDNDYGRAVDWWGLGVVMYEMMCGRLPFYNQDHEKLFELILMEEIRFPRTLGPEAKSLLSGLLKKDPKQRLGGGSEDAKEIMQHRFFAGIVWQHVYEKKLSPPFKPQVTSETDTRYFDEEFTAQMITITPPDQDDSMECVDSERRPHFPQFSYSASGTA

HL-60 [22] = assay: Increase in intracellular ROS level in human HL60 cells at 4 uM after 12 hrs; format: functional, cell-based

C=C1C(=O)O[C@@H]2/C=C(/C)[C@@H](OC(C)=O)C[C@H]3O[C@]3(C)C[C@@H](OC(=O)/C(=C/C)CO)[C@@H]12 [EUPALININ A]
active: Activity (HL-60 [1]) | Activity (HL-60 [2]) | Activity (HL-60 [3]) | Activity (HL-60 [5]) | Activity (HL-60 [6]) | Activity (HL-60 [7]) | Activity (HL-60 [9]) | Activity (HL-60 [10]) | Activity (HL-60 [11]) | Activity (HL-60 [12]) tde | Activity (HL-60 [13]) | Activity (HL-60 [14]) | Activity (HL-60 [15]) | Activity (HL-60 [16]) | Activity (HL-60 [17]) | Activity (HL-60 [18]) | Activity (HL-60 [19]) | Activity (HL-60 [20]) | Activity [21] | Activity (HL-60 [22])
2.4 µM: IC50 (HL-60 [4])
inactive: Activity (HL-60 [8])
